The LD50 is the dose at which mortality reaches 50%. A high value points to a less toxic substance. In general, AUC refers to concentration integrated over time. What is called Cmax is the peak of the concentration-time curve. As a reminder, the half-life is the time in which the quantity being followed falls by half. A high value points to slow decline.

For one data set, the system named is LDLR mRNA. Put plainly: LDLR mRNA stability after actinomycin D in HepG2 cells (Northern blot). Type of data set: cell-based, human. As to conditions: HepG2, berberine 15 hours then actinomycin D 5 μg/ml. As for the experimental part:
HepG2 cells were cultured and then left alone or treated with berberine for 15 hours. After 15 hours, actinomycin D (5 μg/ml) was added to cells at 0, 20, 40, 60, 90, 120, or 150 minutes. Total mRNA was isolated and analyzed by Northern blot for the amount of LDLR mRNA. […] In contrast, the mRNA stability of HMG-CoA reductase was not altered by berberine.

The test system of a further data set is SREBP2. Put plainly: Precursor and mature forms of SREBP2 in HepG2 cells (Western blot). Type of data set: cell-based, human. As to conditions: 8 hours. An excerpt:
Total cell lysates from untreated cells or cells treated with either berberine or GW707 were then harvested and analyzed by Western blot.
(In general: In western blotting, separated proteins are transferred to a membrane and probed.)

For another data set, the system named is ERK. Put plainly: ERK activation in HepG2 or Bel-7402 cells (western blotting, phosphorylated ERK). Type of data set: cell-based, human. As to conditions: both hepatoma cell lines HepG2 and Bel-7402; 0.25-24 hours. The method, then:
HepG2 or Bel-7402 cells were treated with berberine for 0.25, 0.5, 0.75, 1, 2, 8, and 24 hours respectively and tested for levels of activated ERK by western blotting using antibodies that only recognize the activated (phosphorylated) ERK. […] The activation of berberine is also dose dependent (FIG. 14C).

Another data set deals with LDLR promoter. Put plainly: LDLR promoter activity, pLDLR234Luc reporter in HepG2 cells. It is filed as cell-based, human. As to conditions: pLDLR234Luc HepG2, LPDS or LPDS and cholesterol medium, 8 hour treatment. An excerpt: HepG2 cells were transfected with the reporter construct pLDLR234Luc, which contains the SRE- I motif and the sterol-independent regulatory element that mediates the cytokine oncostatin M-induced transcription of the LDLR gene.

In the next data set the test system is PKC. Briefly: PKC activity in rat liver (PepTag assay). It is filed as in vivo. The note with it: berberine treated rats. As for the experimental part:
The livers were dissected and stored in liquid nitrogen for RNA extraction, real-time RT-PCR and PKC activity assay. Total blood samples were also collected to assay fasting blood glucose and serum insulin levels. The insulin levels were analyzed using radio-immunoassay (Linco Research, St Charles, Mo.). The insulin sensitivity indexes (ISI) were calculated according to the formula: 10^4/(fasting serum insulin X fasting blood glucose) (Hanson, Am. J. Epidemiol. 15 1(2), 190-198 (2000)). The insulin level and ISI of normal rats were also determined for comparison. […] It also elevated the fasting blood glucose from 7 to 12.8 mmol/L (P<0.001).
PKC activity was analyzed using the PepTag® Assay for Non-Radioactive Detection of Protein Kinase-C or cAMP-Dependent Protein Kinase kit (Promega) according to the protocol. Briefly, after homogenization and partial purification, […] was mixed with 5 μl of PepTag® Cl peptide (specific substrate of PKC), 5 μl of reaction buffer and 5 μl of PKC activator solution in a 25 μl reaction system. […] They were transferred to a 96-well plate and quantified using densitometry according to the supplier's protocol. The catalytic activity of total PKC of a specific sample was expressed as pmol/min/mg, representing the number of picomoles of phosphate transferred to the substrate per minute per milligram of proteins of the sample.

Data set [1] can be described thus: Toxicity analysis (LD50) in mice. As to conditions: mouse, in vivo. As for the experimental part:
Rats and mice were administered berberine through a variety of techniques, including orally, through subcutaneous injection, peritoneal injection and intravenous injection.

For another data set, the system named is HepG2 cells. Put plainly: Glucose consumption of HepG2 cells with insulin, with or without InsR siRNA. It is filed as cell-based, human. The note with it: […] berberine, 0.5 nM insulin, 12 hr. As for the experimental part: Human InsR siRNA duplex, non-specific control siRNA, siRNA transfection reagent and siRNA transfection medium were obtained from Santa Cruz Biotechnology, Inc. (Santa Cruz, Calif.) and the vendor's siRNA transfection procedure was followed. Briefly, HepG2 cells were seeded onto six-well plates in antibiotic-free RPMI-1640 medium containing 10% fetal bovine serum (FBS). After 60-80% confluence of monolayer, FBS containing medium was discarded and cells were washed with siRNA transfection medium (2 mVwell). 0.8 ml of siRNA transfection medium containing 6 μl of human InsR siRNA duplex (or control siRNA) and 6 ld^1 of siRNA transfection reagent were well mixed at room temperature for 30 min, followed by loading onto washed HepG2 cells. After an 8 hr incubation, the transfection mixture was removed and fresh RPMI-1640 medium supplied with 10% FBS was added. The cells were then incubated for 24 hr. Then, the culture medium was replaced with fresh medium and incubated for an additional 24 hr. At the end of incubation, FBS containing medium was removed and replaced with serum-free fresh RPMI-1640 medium. […] After 12 hr incubation, the amount of glucose in the sample medium was determined. The glucose consumption was calculated according to the following formula: glucose level of the fresh RPMI-1640 minus glucose level of the used RPMIN-1640. […]

A further data set in a line: clinical. As to conditions: human, in vivo, po, 300 mg. As for the experimental part: Healthy human volunteers were given 300 mg of berberine orally. […] The blood concentration curve was analyzed by 3P87 Pharmacokinetics Software program (Chinese Pharmacological Association, China).
Another data set is described as follows: in vivo. The note with it: rabbit, 50 mg/kg. The method, then:
50 mg/kg of berberine was administered through stomach infusion to six rabbits. Serum samples were taken at various points after administration and RP-HPLC was used to measure the drug concentration.

In the case of `COc1ccc2cc3[n+](cc2c1OC)CCc1cc2c(cc1-3)OCO2` [berberine], the “prolongation of turnover rate of LDLR transcript” value in the data set on LDLR mRNA was “approximately threefold”. Moreover, the “amount of the mature form of SREB-2” value with SREBP2 was “no effect”. Moreover, in the data set on ERK, the “ERK activation (phosphorylated ERK)” value is reported as “rapidly activated ERK”. Also, the LDLR promoter activity result with LDLR promoter is given as “no effect”. In the data set on PKC, the “activity of PKC in the livers” value is recorded as “increased activity of PKC”. The compound further showed an LD50 in [1] (intraperitoneal, peritoneal injection) of 30 to 32.2 mg/kg. In addition, in data set [1] (intravenous injection), the LD50 fell in the range of 7.6 to 10.2 mg/kg. In addition, the LD50 in [1] (sc, subcutaneous injection) was 13.9 to 20 mg/kg. In addition, the “glucose consumption of human hepatic cells treated with insulin” value with HepG2 cells is on record as “significantly increased”. Moreover, in the data set “clinical”, the AUC came to 2.8 µg·h/mL, the Cmax came out at 0.395 µg/mL, the “clear rate CL” value worked out at 130.5 L/h and the half-life is 2.91 h. Also, the “peak time Tpeak” value in the data set “in vivo” was determined as 0.63 ± 0.25 h. In “in vivo” (po), this compound gave an AUC of 0.492 ± 0.295 µg·h/mL, a Cmax of 0.0927 ± 0.0509 µg/mL and a half-life of 3.11 ± 0.58 h.

Values taken from patent US20080081781A1, “Methods and compositions for the treatment of metabolic syndrome” (priority 2004, published 2008).
